In general, IC50 refers to the concentration that gives 50% inhibition.

One assay concerns NCI-N87 tumor cells. Briefly: N87 tumor in vivo study. Also noted: species or system Female BALB/cA-nude mice. The following applies: for Average Tumor Volume Day 21 / Inhibition rate / T/C: Day 21; for Average Tumor Volume Day 0: Day 0 (baseline). The procedure: Female BALB/cA-nude mice were implanted with NCI-N87 tumor cells. Tumor measurements were recorded twice a week. Randomize animals to groups (Day 0) when tumors reached an average size of 60-150 mm^3. Group size was 6 mice. Test compound was administered p.o. once daily for 21 days. Tumor inhibition values were determined at Day 21.
Tumor volume (V) was calculated as follow: V=½×a×b, where a and b are the length and width of the tumor respectively. Relative tumor proliferation rate was calculated as follow: T/C (%)=(T−T0)/(C−C0)×100, where T and C are the tumor volume of test compound group and control group on Day 21, T0 and C0 are the tumor volume of test compound group and control group on Day 0.

The test system of assay [1] is BT474 (EGFR overexpression) cells. Briefly: Cell proliferation assay (MTS), BT474. The conditions noted are these: Homo sapiens, BT-474, 168 h, 7 d incubation. It counts as cell-based. The procedure:
(§1) Cell Proliferation Asssay
(§2) Materials and Preparation of Reagents
(§3) MTS testing kit was purchased from Promega. […] Dimethyl sulfoxide (DMSO) was purchased from Sigma.
(§4) Inhibition Activity of Cell Proliferation
(§5) In this assay, inhibition of EGFR and ErbB2 was detected by the inhibition of BT474 and N87 cells proliferation. BT474 cells were cultured in culture flasks to 40-80% confluence in DMEM plus 10% fetal bovine serum. […] Cells were collected and plated onto 96-well plates at desired cell density (BT474: 1000 cells/well; N87: 1000 cells/well). BT474 plates were incubated 48 h at 37° C., with 5% CO2 to adhere. N87 plates were incubated overnight at 37° C., with 5% CO2 to adhere. […] Place BT474 plates at 37° C., with 5% CO2 for 7d. Place N87 plates at 37° C., with 5% CO2 for 72 h. After removing the medium, 20 μl MTS/100 μl medium mixture solution were added to each well and incubate the plates for exactly 2 hours. Measure absorbance at 490 nm and 650 nm (reference wavelength). IC50 was calculated using GraphPad Prism 5.0.

The test system of assay [2] is N87 (EGFR and ErbB2 overexpression) cells. Kind of assay: Cell proliferation assay (MTS), N87. It counts as cell-based. The following applies: 72 h incubation. The procedure:
as §1, §2, §3, §4, §5

Where [3] appears, read: 20 mg/kg p.o. once daily for 21 days.
Setting [4] is: 2 mg/kg p.o. once daily for 21 days.
[5] abbreviates: 5 mg/kg p.o. once daily for 21 days.
[6] abbreviates: 10 mg/kg p.o. once daily for 21 days.
[7] abbreviates: 320 mg/kg p.o. once daily for 21 days.

For the compound `CN(C)C/C=C/C(=O)Nc1cc2c(Nc3ccc(F)c(Cl)c3)ncnc2cc1O[C@H]1CCOC1` [Afatinib, reference compound], in the assay on NCI-N87 tumor cells (setting [3]), the “Average Tumor Volume Day 21” value was determined as 72.9 ± 7.9 mm^3, the Inhibition rate is recorded as 138% and the T/C was −38%. The “Average Tumor Volume Day 0” value with NCI-N87 tumor cells (20 mg/kg p.o. once daily) is given as 117.2 ± 8.3 mm^3.
In the case of `COc1cc2ncnc(Nc3ccc(F)c(Cl)c3)c2cc1NC(=O)/C=C/CN1CCC1CO` (stereo not shown) [Example 1, (E)-N-(4-(3-chloro-4-fluorophenylamino)-7-methoxyquinazolin-6-yl)-4-(2-(hydroxymethyl)azetidin-1-yl)but-2-enamide], the IC50 in assay [1] was found to be 2.3 nM; in assay [2] it was 5 nM.
Taken in the same sequence, the figures for `COC[C@@H]1CCN1C/C=C/C(=O)Nc1cc2c(Nc3ccc(F)c(Cl)c3)ncnc2cc1OC` [Example 3, (S,E)-N-(4-(3-chloro-4-fluorophenylamino)-7-methoxyquinazolin-6-yl)-4-(2-(methoxymethyl)azetidin-1-yl)but-2-enamide] were 21.5 nM and 14.2 nM.
Consider `CCOc1cc2ncnc(Nc3ccc(F)c(Cl)c3)c2cc1NC(=O)/C=C/CN1CC[C@@H]1COC` [Example 4, (R,E)-N-(4-(3-chloro-4-fluorophenylamino)-7-ethoxyquinazolin-6-yl)-4-(2-(methoxymethyl)azetidin-1-yl)but-2-enamide], for which the IC50 in assay [1] is 2 nM. Besides, in the assay with NCI-N87 tumor cells (setting [4]), the “Average Tumor Volume Day 21” value was found to be 436.6 ± 60.5 mm^3, the Inhibition rate is 73% and the T/C came out at 27%. Further, the “Average Tumor Volume Day 0” value in the assay on NCI-N87 tumor cells (2 mg/kg p.o. once daily) is 105.6 ± 9.9 mm^3. For the same compound, in the assay on NCI-N87 tumor cells (setting [5]), the “Average Tumor Volume Day 21” value turned out to be 49.7 ± 5.4 mm^3, the Inhibition rate is reported as 154% and the T/C is −54%. Also, the “Average Tumor Volume Day 0” value with NCI-N87 tumor cells (5 mg/kg p.o. once daily) is listed as 109.1 ± 10.1 mm^3.
Regarding `COCCOc1cc2ncnc(Nc3ccc(F)c(Cl)c3)c2cc1NC(=O)/C=C/CN1CC[C@@H]1COC` [Example 6, (R,E)-N-(4-(3-chloro-4-fluorophenylamino)-7-(2-methoxyethoxy)quinazolin-6-yl)-4-(2-(methoxymethyl)azetidin-1-yl)but-2-enamide], the IC50 in assay [1] was found to be 1.4 nM. Moreover, in the assay on NCI-N87 tumor cells (setting [5]), the “Average Tumor Volume Day 21” value is 176.3 ± 24.2 mm^3, the Inhibition rate came to 95% and the T/C was 5%. In the assay with NCI-N87 tumor cells (5 mg/kg p.o. once daily), the “Average Tumor Volume Day 0” value amounted to 116.9 ± 7.8 mm^3. For the same compound, in the assay on NCI-N87 tumor cells (setting [6]), the “Average Tumor Volume Day 21” value is 49.0 ± 3.9 mm^3, the Inhibition rate was determined as 157% and the T/C was −57%. Further, the “Average Tumor Volume Day 0” value with NCI-N87 tumor cells (10 mg/kg p.o. once daily) came to 114.8 ± 7.8 mm^3.
`COCCOc1cc2ncnc(Nc3ccc(F)c(Cl)c3)c2cc1NC(=O)/C=C/CN1CC[C@H]1COC` [Example 7, (S,E)-N-(4-(3-chloro-4-fluorophenylamino)-7-(2-methoxyethoxy)quinazolin-6-yl)-4-(2-(methoxymethyl)azetidin-1-yl)but-2-enamide]: in assay [1], the half-maximal inhibitory concentration (IC50) is 5.8 nM.
On to `O=C(/C=C/CN1CCC1CO)Nc1cc2c(Nc3ccc(F)c(Cl)c3)ncnc2cc1OCC1CC1` (stereo not shown) [Example 8, (E)-N-(4-(3-chloro-4-fluorophenylamino)-7-(cyclopropylmethoxy)quinazolin-6-yl)-4-(2-(hydroxymethyl)azetidin-1-yl)but-2-enamide], for which the IC50 turned out to be 9.5 nM in assay [1] and 11.8 nM in assay [2].
`COC[C@H]1CCN1C/C=C/C(=O)Nc1cc2c(Nc3ccc(F)c(Cl)c3)ncnc2cc1OCC1CC1` [Example 9, (R,E)-N-(4-(3-chloro-4-fluorophenylamino)-7-(cyclopropylmethoxy)quinazolin-6-yl)-4-(2-(methoxymethyl)azetidin-1-yl)but-2-enamide]: in assay [1], the IC50 was found to be 6.6 nM. Besides, in the assay on NCI-N87 tumor cells (setting [5]), the “Average Tumor Volume Day 21” value is 349.3 ± 43.8 mm^3, the Inhibition rate is recorded as 81% and the T/C was found to be 19%. Also, the “Average Tumor Volume Day 0” value with NCI-N87 tumor cells (5 mg/kg p.o. once daily) is on record as 124.1 ± 8.5 mm^3. Moreover, in the assay with NCI-N87 tumor cells (setting [6]), the “Average Tumor Volume Day 21” value is given as 60.3 ± 6.9 mm^3, the Inhibition rate was 150% and the T/C is recorded as −50%. The “Average Tumor Volume Day 0” value with NCI-N87 tumor cells (10 mg/kg p.o. once daily) is given as 120.2 ± 13.0 mm^3.
In turn, `COC[C@@H]1CCN1C/C=C/C(=O)Nc1cc2c(Nc3ccc(F)c(Cl)c3)ncnc2cc1OCC1CC1` [Example 10, (S,E)-N-(4-(3-chloro-4-fluorophenylamino)-7-(cyclopropylmethoxy)quinazolin-6-yl)-4-(2-(methoxymethyl)azetidin-1-yl)but-2-enamide] registered an IC50 in assay [1] of 21.7 nM.
`O=C(/C=C/CN1CCC1CO)Nc1cc2c(Nc3ccc(F)c(Cl)c3)ncnc2cc1O[C@H]1CCOC1` (stereo partly drawn) [Example 11, (E)-N-(4-(3-chloro-4-fluorophenylamino)-7-((S)-tetrahydrofuran-3-yloxy)quinazolin-6-yl)-4-(2-(hydroxymethyl)azetidin-1-yl)but-2-enamide]: the IC50 in assay [1] worked out at 3.9 nM; in assay [2], 9.6 nM.
Taken in the same sequence, the figures for `COCC1CCN1C/C=C/C(=O)Nc1cc2c(Nc3ccc(F)c(Cl)c3)ncnc2cc1O[C@H]1CCOC1` (stereo partly drawn) [Example 12, (E)-N-(4-(3-chloro-4-fluorophenylamino)-7-((S)-tetrahydrofuran-3-yloxy)quinazolin-6-yl)-4-(2-(methoxymethyl)azetidin-1-yl)but-2-enamide] were 2.9 nM and 1.5 nM.
Taken in the same sequence, the figures for `O=C(/C=C/CN1CCC1CO)Nc1cc2c(Nc3ccc(F)c(Cl)c3)ncnc2cc1OC[C@H]1COCCO1` (stereo partly drawn) [Example 13, (E)-N-(7-(((R)-1,4-dioxan-2-yl)methoxy)-4-(3-chloro-4-fluorophenylamino)quinazolin-6-yl)-4-(2-(hydroxymethyl)azetidin-1-yl)but-2-enamide] were 2.7 nM and 13.5 nM.
`COC[C@H]1CCN1C/C=C/C(=O)Nc1cc2c(Nc3ccc(F)c(Cl)c3)ncnc2cc1OC[C@H]1COCCO1` [Example 14, (E)-N-(7-(((R)-1,4-dioxan-2-yl)methoxy)-4-(3-chloro-4-fluorophenylamino)quinazolin-6-yl)-4-((R)-2-(methoxymethyl)azetidin-1-yl)but-2-enamide] had an IC50 in assay [1] of 2.9 nM.
Still for that read-out and setting: under `COC[C@@H]1CCN1C/C=C/C(=O)Nc1cc2c(Nc3ccc(F)c(Cl)c3)ncnc2cc1OC[C@H]1COCCO1` [Example 15, (E)-N-(7-(((R)-1,4-dioxan-2-yl)methoxy)-4-(3-chloro-4-fluorophenylamino)quinazolin-6-yl)-4-((S)-2-(methoxymethyl)azetidin-1-yl)but-2-enamide] stands 25 nM.
For the compound `O=C(/C=C/CN1CCC1CO)Nc1cc2c(Nc3ccc(F)c(Cl)c3)ncnc2cc1OC[C@@H]1COCCO1` (stereo partly drawn) [Example 16, (E)-N-(7-(((S)-1,4-dioxan-2-yl)methoxy)-4-(3-chloro-4-fluorophenylamino)quinazolin-6-yl)-4-(2-(hydroxymethyl)azetidin-1-yl)but-2-enamide], the figures for the IC50 in assay [1] and in assay [2] were 17.5 nM and 39.5 nM, respectively.
Taken in the same sequence, the figures for `O=C(/C=C/CN1CCC1CO)Nc1cc2c(Nc3ccc(F)c(Cl)c3)ncnc2cc1OC[C@H]1[C@@H]2COC[C@@H]21` (stereo partly drawn) [Example 18, (E)-N-(7-((1R,5S,6r)-3-oxabicyclo[3.1.0]hexan-6-ylmethoxy)-4-(3-chloro-4-fluorophenylamino)quinazolin-6-yl)-4-(2-(hydroxymethyl)azetidin-1-yl)but-2-enamide] were 10.8 nM and 11.2 nM.
Compound `COC[C@@H]1CCN1C/C=C/C(=O)Nc1cc2c(Nc3ccc(F)c(Cl)c3)ncnc2cc1OC[C@H]1[C@@H]2COC[C@@H]21` [Example 20, (E)-N-(7-((1R,5S,6r)-3-oxabicyclo[3.1.0]hexan-6-ylmethoxy)-4-(3-chloro-4-fluorophenylamino)quinazolin-6-yl)-4-((S)-2-(methoxymethyl)azetidin-1-yl)but-2-enamide] returned a 50% inhibitory concentration (IC50) in assay [1] of 22.2 nM.
Turning to `CS(=O)(=O)CCNCc1ccc(-c2ccc3ncnc(Nc4ccc(OCc5cccc(F)c5)c(Cl)c4)c3c2)o1` [Lapatinib, reference compound], in the assay with NCI-N87 tumor cells (setting [7]), the Inhibition rate was found to be 87% and the T/C was 13%. Also, the “Average Tumor Volume Day 0” value with NCI-N87 tumor cells came out at 124.4 ± 7.3 mm^3.

Values taken from patent US9714235B2, “Quinazoline derivatives, compositions thereof, and use as pharmaceuticals” (Shanghai Fochon Pharmaceutical Co., Ltd., priority 2013, dated 2017).
